Patent US10166239B2, “Tropomyosin-related kinase (Trk) inhibitors” (Genzyme Corporation, priority 2013, dated 2019)

Tests used:
[1] = system: Reactivated Peptidoglycan-Polysaccharide Knee Arthritis; assay: Reactivated peptidoglycan-polysaccharide (PGPS) knee arthritis; type: in vivo, Male Lewis rats; conditions: for gait scores, second reactivation: intra-articular dose on day −7 (Triamcinolone 0.06 mg: day 15, 17, 18; test compound 1 mg: throughout second reactivation); for gait deficiency, second reactivation / gait scores and deficiency, first reactivation: intra-articular dose on day −7 (Triamcinolone 0.06 mg; test compound 1 mg); for gait deficiency, second reactivation: days 15, 17 and 18; for gait scores and deficiency, first reactivation: first reactivation (days 1-4)
Description: Male Lewis rats were acclimated to the testing facility for 7 days. The rats were housed in 5 per cage in shoe-box polycarbonate cages with wire tops, wood chip bedding and suspended food and water bottles. On day −21, the male Lewis rats were randomized into treatment groups by body weight. The rats were anesthetized and injected with peptidoglycan-polysaccharide (PGPS) into the right knee to induce PGPS arthritis. Arthritis was reactivated on days 0 and 14 by an IV tail injection of PGPS. […] The rats were weighed at baseline on days 0, 4, 14 and 18. […] Gait analysis was performed by applying ink to the ventral surface of the foot and documenting weight bearing during movement across paper. The animals were terminated at day 18. Right knees were removed, trimmed of extraneous tissue, and collected into 10% neutral buffered formalin. After two days in the formalin buffer and three days in 10% formic acid decalcifier, the knees were cut into two approximately equal halves in the frontal plane and processed for paraffin embedding and stained with T. Blue. Histological examinations were subsequently performed for bone resorption, inflammation, pannus and cartilage damage. […] Gait scores were analyzed using a Kruskal-Wallis test (non-parametric ANOVA) with Dunn's multiple comparison post-test. Histopathology scores were analyzed using a Kruskal-Wallis test (non-parametric ANOVA) with Dunn's multiple comparison post-test.

[2] = system: Monosodium Iodoacetate Induced Osteoarthritis; assay: Monosodium iodoacetate (MIA) induced osteoarthritis; type: in vivo, Male Wistar rats
Description: Male Wistar rats were acclimated to the testing facility for 5 days. The rats were individually housed in micro-isolator shoe-box polycarbonate cages with cob bedding and water bottles. Dry pelleted food of known composition and nutritional components was provided ad libitum Animals were randomized by treatment type using an online random number generator. Each treatment group was assigned a number, entered into the random number generator, recorded then translated back to the associated treatment. All injections were given in the left leg unless the treatment indicated “Contralateral” in which case the injection was given in the right leg. Both legs were shaved on all animals at the time of the treatment injections to blind the test administrator. The rats were weighed the day prior to injection with monosodium iodoacetate (MIA), the agent used to induce osteoarthritis in the animals. The day of injection, rats from groups 2-8 received a subcutaneous (SC) dose of buprenorphine at least one hour prior to induction. […] Naïve animals were then placed in recovery. All other animals received an injection of MIA. In animals receiving MIA, the hind leg was flexed and an injection of MIA (25 μL) was injected into the intra-articular space using a 27 gauge ½ inch needle. Standard postoperative care was performed (twice daily for 48 hours). On Day 8 the test article was administered as described above. On Days −1, 7, 14, 21, 28, and 35 post-induction, weight bearing was assessed. A weight bearing scale was utilized using a plexiglass chamber to assess the amount of weight distributed in each hind limb. The animals were acclimated to the chamber for at least 5 minutes prior to testing and the weight distribution was recorded 5 times. The animals were terminated at day 36. Both stifles were collected from each animal; the skin was removed from the joint and the patella was removed while leaving as much of the fat pad intact with the joint. The stifle was placed in the appropriate cassette with rolled gauze to secure the stifle in the cassette and then placed into 4% Paraformaldehyde. These samples were examined histologically.

[3] = Triamcinolone 0.06 mg intra-articular

Row | Compound | AUC values of knee caliper measurements ([1]; 1 mg intra-articular) | reduction of AUC values of gait scores and deficiency, first reactivation ([1]; 1 mg intra-articular) | reduction of AUC values of gait scores and deficiency, second reactivation ([1]; 1 mg intra-articular) | Knee caliper measurements ([1]; 1 mg intra-articular, day 14 (just prior to the second reactivation)) | gait scores, second reactivation [1] | gait deficiency, second reactivation [1] | gait scores and deficiency, first reactivation [1] | efficacy (weight bearing) ([2]; 10 μg Contralateral injection) | efficacy (weight bearing) ([2]; 10 μg Ipsilateral injection) | efficacy (weight bearing) ([2]; 30 μg Contralateral injection) | efficacy (weight bearing) ([2]; 30 μg Ipsilateral injection) | systemic pain relief (weight bearing) ([2]; 100 μg Contralateral injection, 1-4 weeks) | efficacy (weight bearing) ([2]; 100 μg Ipsilateral injection) | MIA/LRS compared with treatment (p<0.05) ([2]; Ipsilateral 100 μg and 30 μg, day 35) | body weight results ([2]; intra-articular 10, 30, 100 μg on Day 8) | Histopathology of the knee joint, adverse changes ([2]; stifles collected at day 36) | reduction of AUC values of gait scores and deficiency, each reactivation calculated separately [1, 3] | reduction of AUC values of gait scores and deficiency, summed [1, 3] | reductions in the AUC of knee caliper measurements [1, 3] | Knee caliper measurements ([1]; Triamcinolone 0.06 mg intra-articular, days 0, 2, 4, 16 and 18)
1 | COc1ccc(COc2ccc(Cn3c(N)nc4cc(-c5cnn(C)c5)cnc43)cc2OC)cc1 [Ex. 3-15, 3-(3-Methoxy-4-((4-methoxybenzyl)oxy)benzyl)-6-(1-methyl-1H-pyrazol-4-yl)-3H-imidazo[4,5-b]pyridin-2-amine] | generally unaffected | 92-93% | 85-86% | significantly reduced on day 14 | significantly reduced throughout the second reactivation | reductions in deficiency were significant | significant reductions | efficacy at 3 and 4 weeks following administration | efficacy was observed at 2 through 4 weeks following administration | efficacy at only the 3 week timepoint | effective throughout the four weeks following administration | did not show systemic pain relief at any timepoint | effective throughout the four weeks following administration | MIA/LRS was significantly worse | No adverse observations | no adverse changes |  |  |  | 
2 | C[C@]12C=CC(=O)C=C1CC[C@H]1[C@@H]3C[C@@H](O)[C@](O)(C(=O)CO)[C@@]3(C)C[C@H](O)[C@@]12F [Triamcinolone, reference compound] |  |  |  |  | significantly reduced | significantly reduced | significantly reduced |  |  |  |  |  |  |  |  |  | 74-99% | 88-92% | 53-106% | significantly reduced
